Experimental data: US20260217708A1, “FUSED BENZAZEPINE DERIVATIVES FOR USE IN THE TREATMENT OF CANCER AND EPILEPSY” (UCB BIOPHARMA SRL, priority 2023, published 2026)

Tests used:
system Xc^− [1] = target: T1, system Xc^− (Homo sapiens, UniProt Q9UPY5); experiment: Cystine-induced glutamate release assay; assay type: cell-based; set-up: endogenous in cells; host or cells: H4 cells; details: H4 cells, sodium-free HEPES buffer, 50 μM L-Cystine, 2 hours, Amplex Red glutamate readout; read-out: pIC50 Cystine-induced glutamate release assay (converted)
T1 sequence (Q9UPY5 1-501): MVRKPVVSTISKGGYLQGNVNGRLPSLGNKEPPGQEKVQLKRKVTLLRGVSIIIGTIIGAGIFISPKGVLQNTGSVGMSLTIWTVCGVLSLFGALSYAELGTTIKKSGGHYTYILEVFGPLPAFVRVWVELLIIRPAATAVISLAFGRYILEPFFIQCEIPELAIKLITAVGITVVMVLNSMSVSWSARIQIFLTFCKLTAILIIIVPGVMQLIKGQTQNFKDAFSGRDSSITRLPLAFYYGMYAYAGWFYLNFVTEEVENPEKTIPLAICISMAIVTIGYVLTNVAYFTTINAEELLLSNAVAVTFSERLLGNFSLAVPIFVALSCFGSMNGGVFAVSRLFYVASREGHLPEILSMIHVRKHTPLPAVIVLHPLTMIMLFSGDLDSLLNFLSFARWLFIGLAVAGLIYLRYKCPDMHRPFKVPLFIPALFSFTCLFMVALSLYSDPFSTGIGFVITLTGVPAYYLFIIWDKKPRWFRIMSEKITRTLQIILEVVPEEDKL
T1 sequence (P08195 1-529 partner): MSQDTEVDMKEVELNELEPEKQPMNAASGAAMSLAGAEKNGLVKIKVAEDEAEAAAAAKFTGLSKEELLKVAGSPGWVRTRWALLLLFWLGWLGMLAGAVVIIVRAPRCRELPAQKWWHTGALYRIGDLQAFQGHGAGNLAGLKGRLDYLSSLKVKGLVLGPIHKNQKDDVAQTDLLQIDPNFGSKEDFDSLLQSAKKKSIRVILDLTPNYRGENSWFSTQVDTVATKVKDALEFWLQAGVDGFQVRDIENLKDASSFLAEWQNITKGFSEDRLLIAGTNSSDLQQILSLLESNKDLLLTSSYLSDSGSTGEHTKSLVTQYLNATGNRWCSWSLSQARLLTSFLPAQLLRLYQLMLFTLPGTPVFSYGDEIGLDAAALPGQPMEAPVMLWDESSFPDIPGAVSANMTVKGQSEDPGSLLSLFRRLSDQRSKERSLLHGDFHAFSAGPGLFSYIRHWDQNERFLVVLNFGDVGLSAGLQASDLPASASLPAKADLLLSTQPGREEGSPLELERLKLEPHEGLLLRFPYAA
Summary of the method: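 IC50 (reported as pIC50) normalized to DMSO 1% and Erastin 50 μM controls, from Amplex Red fluorescence of glutamate exported into supernatant. H4 cells were washed into sodium-free buffer to exclude EAAT transport, then given compound with 50 μM L-cystine for 2 h in the incubator.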

system Xc^− [2] = target: T1, system Xc^−; experiment: [^14C]L-Cystine uptake assay; assay type: cell-based; set-up: endogenous in cells; host or cells: H4 cells; details: H4 cells, sodium-free HEPES buffer, 0.5 μM L-[14C]Cystine and 4.5 μM L-Cystine, 1 hour at 37° C.; read-out: pIC50 [^14C] L-Cystine uptake assay (converted)
Summary of the method: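 Compound effect is given as pIC50, taken between controls of 1% DMSO and 50 μM Erastin. Human H4 cells were pretreated 15 min with compound in sodium-free buffer, then took up 0.5 μM [14C]cystine with 4.5 μM cold cystine for 1 hour at 37° C, read by scintillation proximity counting.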

Row | IC50 (system Xc^− [1]) [nM] | IC50 (system Xc^− [2]) [nM] | SMILES
1 | < 15.8 | 15.8 to 39.8 | Cc1cc2c(c(F)n1)-c1ncc(F)cc1C(C)C(=O)N2CC(=O)Nc1ccc(Cl)c(F)c1 (single isomer, unassigned) [#303, N-(4-chloro-3-fluoro-phenyl)-2-[5,15-difluoro-8,13-dimethyl-9-oxo-3,10,14-triazatricyclo[9.4.0.0^2,7]pentadeca-1(15),2,4,6,11,13-hexaen-10-yl]acetamide]
2 | 15.8 to 39.8 | 15.8 to 39.8 | Cc1cc2c(c(F)n1)-c1ncc(F)cc1C(C)C(=O)N2CC(=O)Nc1ccc(C(F)F)cc1 (single isomer, unassigned) [#304, 2-[5,15-difluoro-8,13-dimethyl-9-oxo-3,10,14-triazatricyclo[9.4.0.0^2,7]pentadeca-1(15),2,4,6,11,13-hexaen-10-yl]-N-[4-(difluoromethyl)phenyl]acetamide]
3 | < 15.8 | 15.8 to 39.8 | CC1C(=O)N(CC(=O)Nc2ccc(Cl)c(F)c2)c2cc(C#N)ccc2-c2cc(F)cnc21 (single isomer, unassigned) [#307, N-(4-chloro-3-fluoro-phenyl)-2-[9-cyano-2-fluoro-5-methyl-6-oxo-5H-pyrido[2,3-d][1]benzazepin-7-yl]acetamid]
4 | < 15.8 | 15.8 to 39.8 | CC1C(=O)N(CC(=O)Nc2ccc(C(F)F)cc2)c2cc(C#N)ccc2-c2cc(F)cnc21 (single isomer, unassigned) [#308, 2-[9-cyano-2-fluoro-5-methyl-6-oxo-5H-pyrido[2,3-d][1]benzazepin-7-yl]-N-[4-(difluoromethyl)phenyl]acetamide]
5 | 15.8 to 39.8 | 15.8 to 39.8 | CC1C(=O)N(CC(=O)Nc2ccc(C(F)F)cc2)c2cc(C#N)cc(F)c2-c2cccnc21 (single isomer, unassigned) [#309, 2-[9-cyano-11-fluoro-5-methyl-6-oxo-5H-pyrido[2,3-d][1]benzazepin-7-yl]-N-[4-(difluoromethyl)phenyl]acetamide]
6 | < 15.8 | < 15.8 | CC1C(=O)N(CC(=O)Nc2ccc(Cl)c(F)c2)c2cc(C#N)cc(F)c2-c2cccnc21 (single isomer, unassigned) [#310, N-(4-chloro-3-fluoro-phenyl)-2-[9-cyano-11-fluoro-5-methyl-6-oxo-5H-pyrido[2,3-d][1]benzazepin-7-yl]acetamide]
7 | < 15.8 | 39.8 to 100 | CC1C(=O)N(CC(=O)Nc2ccc(C(F)F)cc2)c2cc(C#N)ccc2-c2cccnc21 (single isomer, unassigned) [#312, 2-[9-cyano-5-methyl-6-oxo-5H-pyrido[2,3-d][1]benzazepin-7-yl]-N-[4-(difluoromethyl)phenyl]acetamide]
8 | < 15.8 | 15.8 to 39.8 | CC1C(=O)N(CC(=O)Nc2ccc(C(F)F)cc2)c2cc(Cl)cc(F)c2-c2cncnc21 (single isomer, unassigned) [#313, 2-[9-chloro-11-fluoro-5-methyl-6-oxo-5H-pyrimido[4,5-d][1]benzazepin-7-yl]-N-[4-(difluoromethyl)phenyl]acetamide]
9 | 15.8 to 39.8 | < 15.8 | CC1C(=O)N(CC(=O)Nc2ccc(Cl)c(F)c2)c2cc(Cl)cc(F)c2-c2cncnc21 (single isomer, unassigned) [#314, 2-[9-chloro-11-fluoro-5-methyl-6-oxo-5H-pyrimido[4,5-d][1]benzazepin-7-yl]-N-(4-chloro-3-fluoro-phenyl)acetamide]
10 | < 15.8 | < 15.8 | COc1cc(F)c2c(c1)N(CC(=O)Nc1ccc(C(F)F)cc1)C(=O)C(C)c1ncccc1-2 (single isomer, unassigned) [#315, N-[4-(difluoromethyl)phenyl]-2-[11-fluoro-9-methoxy-5-methyl-6-oxo-5H-pyrido[2,3-d][1]benzazepin-7-yl]acetamide]
11 | 15.8 to 39.8 | 15.8 to 39.8 | COc1cc(F)c2c(c1)N(CC(=O)Nc1ccc(Cl)c(F)c1)C(=O)C(C)c1ncccc1-2 (single isomer, unassigned) [#316, N-(4-chloro-3-fluoro-phenyl)-2-[11-fluoro-9-methoxy-5-methyl-6-oxo-5H-pyrido[2,3-d][1]benzazepin-7-yl]acetamide]
12 | < 15.8 | 15.8 to 39.8 | O=C(CN1C(=O)C(O)c2ncc(F)cc2-c2c(F)cc(F)cc21)Nc1ccc(Cl)c(F)c1 (single isomer, unassigned) [#317, N-(4-chloro-3-fluoro-phenyl)-2-[2,9,11-trifluoro-5-hydroxy-6-oxo-5H-pyrido[2,3-d][1]benzazepin-7-yl]acetamide]
13 | 15.8 to 39.8 | 39.8 to 100 | COc1cc2c(cn1)-c1cccnc1C(C)C(=O)N2CC(=O)Nc1ccc(C(F)F)cc1 (single isomer, unassigned) [#319, N-[4-(difluoromethyl)phenyl]-2-[5-methoxy-10-methyl-9-oxo-4,8,12-triazatricyclo[9.4.0.0^2,7]pentadeca-1(15),2(7),3,5,11,13-hexaen-8-yl]acetamide]
14 | 15.8 to 39.8 | 15.8 to 39.8 | COc1cc2c(cn1)-c1cccnc1C(C)C(=O)N2CC(=O)Nc1ccc(Cl)c(F)c1 (single isomer, unassigned) [#320, N-(4-chloro-3-fluoro-phenyl)-2-[5-methoxy-10-methyl-9-oxo-4,8,12-triazatricyclo[9.4.0.0^2,7]pentadeca-1(15),2(7),3,5,11,13-hexaen-8-yl]acetamide]
15 | < 15.8 | < 15.8 | Cc1cc2c(cn1)-c1ccc(F)cc1C(C)C(=O)N2CC(=O)Nc1ccc(C(F)F)cc1 (single isomer, unassigned) [#323, N-[4-(difluoromethyl)phenyl]-2-[9-fluoro-3,7-dimethyl-6-oxo-7H-pyrido[3,4-a][3]benzazepin-5-yl]acetamide]
16 | < 15.8 | < 15.8 | Cc1cc2c(cn1)-c1ccc(F)cc1C(C)C(=O)N2CC(=O)Nc1ccc(Cl)c(F)c1 (single isomer, unassigned) [#324, N-(4-chloro-3-fluoro-phenyl)-2-[9-fluoro-3,7-dimethyl-6-oxo-7H-pyrido[3,4-a][3]benzazepin-5-yl]acetamide]
17 | 15.8 to 39.8 | < 15.8 | CC1C(=O)N(CC(=O)Nc2ccc(C(F)F)cc2)c2cc(C3(F)CC3)ncc2-c2cc(F)cnc21 (single isomer, unassigned) [#325, N-[4-(difluoromethyl)phenyl]-2-[14-fluoro-5-(1-fluorocyclopropyl)-10-methyl-9-oxo-4,8,12-triazatricyclo[9.4.0.0^2,7]pentadeca-1(11),2,4,6,12,14-hexaen-8-yl]acetamide]
18 | < 15.8 | < 15.8 | CC1C(=O)N(CC(=O)Nc2ccc(Cl)c(F)c2)c2cc(C3(F)CC3)ncc2-c2cc(F)cnc21 (single isomer, unassigned) [#326, N-(4-chloro-3-fluoro-phenyl)-2-[14-fluoro-5-(1-fluorocyclopropyl)-10-methyl-9-oxo-4,8,12-triazatricyclo[9.4.0.0^2,7]pentadeca-1(15),2,4,6,11,13-hexaen-8-yl]acetamide]
19 | < 15.8 | < 15.8 | Cc1cc2c(cn1)-c1cc(F)cnc1C(C)C(=O)N2CC(=O)Nc1ccc(Cl)c(F)c1 (single isomer, unassigned) [#327, N-(4-chloro-3-fluoro-phenyl)-2-[14-fluoro-5,10-dimethyl-9-oxo-4,8,12-triazatricyclo[9.4.0.0^2,7]pentadeca-1(15),2,4,6,11,13-hexaen-8-yl]acetamide]
20 | < 15.8 | 15.8 to 39.8 | Cc1cc2c(cn1)-c1cc(F)cnc1C(C)C(=O)N2CC(=O)Nc1ccc(C(F)F)cc1 (single isomer, unassigned) [#328, N-[4-(difluoromethyl)phenyl]-2-[14-fluoro-5,10-dimethyl-9-oxo-4,8,12-triazatricyclo[9.4.0.0^2,7]pentadeca-1(15),2,4,6,11,13-hexaen-8-yl]acetamide]
